Activity calls are given as the source filed them. No rule for the calls is given here.
System: rodent lifetime carcinogenesis bioassay, tumor incidence TD50
Assay: carcinogenic potency in animals, long-term in vivo studies, CPDB compilation (AID 1745844)

## CCN(Cc1cccc(S(=O)(=O)O)c1)c1ccc(C(=C2C=CC(=[N+](CC)Cc3cccc(S(=O)(=O)O)c3)C=C2)c2ccc(O)cc2S(=O)(=O)[O-])cc1
mouse, strain C3HeB/FeJ, females, in feed, site: any site (literature study), lesion: malignant tumor, dosed 104 weeks, study length 104 weeks
  carcinogen call: negative (inactive)
mouse, strain C3HeB/FeJ, females, in feed, site: any site (literature study), lesion: several types, types named in the paper, dosed 104 weeks, study length 104 weeks
  carcinogen call: negative (inactive)
mouse, strain C3HeB/FeJ, females, in feed, site: liver, lesion: hepatocellular adenoma, dosed 104 weeks, study length 104 weeks
  carcinogen call: negative (inactive)
mouse, strain C3HeB/FeJ, females, in feed, site: lung, lesion: adenoma, dosed 104 weeks, study length 104 weeks
  TD50: 133000 mg/kg/day (inactive)
mouse, strain C3HeB/FeJ, males, in feed, site: any site (literature study), lesion: malignant tumor, dosed 104 weeks, study length 104 weeks
  carcinogen call: negative (inactive)
mouse, strain C3HeB/FeJ, males, in feed, site: any site (literature study), lesion: several types, types named in the paper, dosed 104 weeks, study length 104 weeks
  TD50: 18100 mg/kg/day (inactive)
mouse, strain C3HeB/FeJ, males, in feed, site: lung, lesion: adenoma, dosed 104 weeks, study length 104 weeks
  carcinogen call: negative (inactive)
rat, strain Osborne-Mendel, females, in feed, site: any site (literature study), lesion: malignant tumor, dosed 104 weeks, study length 104 weeks
  TD50: 46700 mg/kg/day (inactive)
rat, strain Osborne-Mendel, females, in feed, site: any site (literature study), lesion: several types, types named in the paper, dosed 104 weeks, study length 104 weeks
  TD50: 18500 mg/kg/day (inactive)
rat, strain Osborne-Mendel, females, in feed, site: liver, lesion: one or several types, types not named, dosed 104 weeks, study length 104 weeks
  carcinogen call: negative (inactive)
rat, strain Osborne-Mendel, females, in feed, site: mammary gland, lesion: fibroadenoma, dosed 104 weeks, study length 104 weeks
  carcinogen call: negative (inactive)
rat, strain Osborne-Mendel, males, in feed, site: any site (literature study), lesion: malignant tumor, dosed 104 weeks, study length 104 weeks
  carcinogen call: negative (inactive)
rat, strain Osborne-Mendel, males, in feed, site: any site (literature study), lesion: several types, types named in the paper, dosed 104 weeks, study length 104 weeks
  carcinogen call: negative (inactive)
rat, strain Osborne-Mendel, males, in feed, site: liver, lesion: hepatocellular adenoma, dosed 104 weeks, study length 104 weeks
  carcinogen call: negative (inactive)

## CN(N=O)c1ccccn1
rat, strain BD VI, females, by gavage, site: any site (literature study), lesion: benign tumor, dosed 72 weeks, study length 72 weeks
  TD50: 3.05 mg/kg/day
rat, strain BD VI, females, by gavage, site: any site (literature study), lesion: malignant tumor, dosed 72 weeks, study length 72 weeks
  TD50: 0.668 mg/kg/day
rat, strain BD VI, females, by gavage, site: any site (literature study), lesion: several types, types named in the paper, dosed 72 weeks, study length 72 weeks
  TD50: 0.28 mg/kg/day
rat, strain BD VI, females, by gavage, site: esophagus, lesion: several types, types named in the paper, dosed 72 weeks, study length 72 weeks
  TD50: 0.214 mg/kg/day

## C=CCN(CC(C)=O)N=O
hamster, strain Syrian Golden, females, by gavage, site: liver, lesion: cholangiocarcinoma, dosed 40 weeks, study length 55 weeks
  TD50: 21.2 mg/kg/day
hamster, strain Syrian Golden, females, by gavage, site: liver, lesion: hepatocellular adenoma, dosed 40 weeks, study length 55 weeks
  TD50: 4.87 mg/kg/day
hamster, strain Syrian Golden, females, by gavage, site: liver, lesion: several types, types named in the paper, dosed 40 weeks, study length 55 weeks
  TD50: 3.78 mg/kg/day
hamster, strain Syrian Golden, females, by gavage, site: nasal mucosa, lesion: carcinoma, dosed 40 weeks, study length 55 weeks
  TD50: 1.36 mg/kg/day
hamster, strain Syrian Golden, females, by gavage, site: nasal mucosa, lesion: several types, types named in the paper, dosed 40 weeks, study length 55 weeks
  TD50: 1.19 mg/kg/day
rat, strain Fischer 344, females, in drinking water, site: esophagus, lesion: several types, types named in the paper, dosed 50 weeks, study length 85 weeks
  TD50: 1.25 mg/kg/day
rat, strain Fischer 344, females, in drinking water, site: liver, lesion: hepatocellular carcinoma, dosed 50 weeks, study length 85 weeks
  TD50: 0.335 mg/kg/day

## CCCCN(N)CCCC
mouse, strain Swiss albino, females, in drinking water, site: forestomach, lesion: several types, types named in the paper, dosed 109 weeks, study length 109 weeks
  TD50: 71.5 mg/kg/day
mouse, strain Swiss albino, females, in drinking water, site: forestomach, lesion: squamous-cell carcinoma, dosed 109 weeks, study length 109 weeks
  TD50: 152 mg/kg/day
mouse, strain Swiss albino, females, in drinking water, site: forestomach, lesion: squamous-cell papilloma, dosed 109 weeks, study length 109 weeks
  TD50: 95.9 mg/kg/day
mouse, strain Swiss albino, females, in drinking water, site: liver, lesion: angioma, dosed 109 weeks, study length 109 weeks
  carcinogen call: negative (inactive)
mouse, strain Swiss albino, females, in drinking water, site: lung, lesion: adenocarcinoma, dosed 109 weeks, study length 109 weeks
  TD50: 133 mg/kg/day
mouse, strain Swiss albino, females, in drinking water, site: lung, lesion: adenoma, dosed 109 weeks, study length 109 weeks
  TD50: 51.5 mg/kg/day
mouse, strain Swiss albino, females, in drinking water, site: lung, lesion: several types, types named in the paper, dosed 109 weeks, study length 109 weeks
  TD50: 55.5 mg/kg/day
mouse, strain Swiss albino, males, in drinking water, site: forestomach, lesion: several types, types named in the paper, dosed 109 weeks, study length 109 weeks
  TD50: 84.2 mg/kg/day
mouse, strain Swiss albino, males, in drinking water, site: forestomach, lesion: squamous-cell carcinoma, dosed 109 weeks, study length 109 weeks
  TD50: 317 mg/kg/day
mouse, strain Swiss albino, males, in drinking water, site: forestomach, lesion: squamous-cell papilloma, dosed 109 weeks, study length 109 weeks
  TD50: 109 mg/kg/day
mouse, strain Swiss albino, males, in drinking water, site: liver, lesion: hepatoma, benign, dosed 109 weeks, study length 109 weeks
  TD50: 189 mg/kg/day
mouse, strain Swiss albino, males, in drinking water, site: liver, lesion: several types, types named in the paper, dosed 109 weeks, study length 109 weeks
  TD50: 105 mg/kg/day
mouse, strain Swiss albino, males, in drinking water, site: lung, lesion: adenocarcinoma, dosed 109 weeks, study length 109 weeks
  TD50: 82.3 mg/kg/day
mouse, strain Swiss albino, males, in drinking water, site: lung, lesion: adenoma, dosed 109 weeks, study length 109 weeks
  TD50: 44.9 mg/kg/day
mouse, strain Swiss albino, males, in drinking water, site: lung, lesion: several types, types named in the paper, dosed 109 weeks, study length 109 weeks
  TD50: 38.1 mg/kg/day

## O=S(=O)(Oc1ccc(Cl)cc1)c1ccc(Cl)cc1
mouse, strain B6AKF1, females, oral dosing, site: any site (literature study), lesion: several types, types named in the paper, dosed 76 weeks, study length 76 weeks
  carcinogen call: negative (inactive)
mouse, strain B6AKF1, females, oral dosing, site: liver, lesion: hepatoma, dosed 76 weeks, study length 76 weeks
  carcinogen call: negative (inactive)
mouse, strain B6AKF1, females, oral dosing, site: lung, lesion: adenoma, dosed 76 weeks, study length 76 weeks
  carcinogen call: negative (inactive)
mouse, strain B6AKF1, males, oral dosing, site: any site (literature study), lesion: several types, types named in the paper, dosed 76 weeks, study length 76 weeks
  carcinogen call: negative (inactive)
mouse, strain B6AKF1, males, oral dosing, site: liver, lesion: hepatoma, dosed 76 weeks, study length 76 weeks
  carcinogen call: negative (inactive)
mouse, strain B6AKF1, males, oral dosing, site: lung, lesion: adenoma, dosed 76 weeks, study length 76 weeks
  carcinogen call: negative (inactive)
mouse, strain B6C3F1, females, oral dosing, site: any site (literature study), lesion: several types, types named in the paper, dosed 76 weeks, study length 76 weeks
  TD50: 931 mg/kg/day (inactive)
mouse, strain B6C3F1, females, oral dosing, site: liver, lesion: hepatoma, dosed 76 weeks, study length 76 weeks
  TD50: 931 mg/kg/day (inactive)
mouse, strain B6C3F1, females, oral dosing, site: lung, lesion: several types, types named in the paper, dosed 76 weeks, study length 76 weeks
  carcinogen call: negative (inactive)
mouse, strain B6C3F1, males, oral dosing, site: any site (literature study), lesion: several types, types named in the paper, dosed 76 weeks, study length 76 weeks
  TD50: 84.5 mg/kg/day (inactive)
mouse, strain B6C3F1, males, oral dosing, site: liver, lesion: hepatoma, dosed 76 weeks, study length 76 weeks
  TD50: 422 mg/kg/day (inactive)
mouse, strain B6C3F1, males, oral dosing, site: lung, lesion: adenoma, dosed 76 weeks, study length 76 weeks
  TD50: 869 mg/kg/day (inactive)

## O=NN(CCCC(F)(F)F)CCCC(F)(F)F
rat, strain Sprague-Dawley, females, by gavage, site: any site (literature study), lesion: malignant tumor, dosed 32 weeks, study length 101 weeks
  TD50: 0.291 mg/kg/day
rat, strain Sprague-Dawley, females, by gavage, site: liver, lesion: hepatocellular carcinoma, dosed 32 weeks, study length 101 weeks
  TD50: 0.707 mg/kg/day
rat, strain Sprague-Dawley, females, by gavage, site: lung, lesion: several types, types named in the paper, dosed 32 weeks, study length 101 weeks
  TD50: 1.12 mg/kg/day
rat, strain Sprague-Dawley, males, by gavage, site: any site (literature study), lesion: malignant tumor, dosed 32 weeks, study length 101 weeks
  TD50: 0.363 mg/kg/day
rat, strain Sprague-Dawley, males, by gavage, site: liver, lesion: hepatocellular carcinoma, dosed 32 weeks, study length 101 weeks
  TD50: 0.793 mg/kg/day
rat, strain Sprague-Dawley, males, by gavage, site: lung, lesion: several types, types named in the paper, dosed 32 weeks, study length 101 weeks
  TD50: 0.793 mg/kg/day

Reference: PubChem BioAssay AID1745844 (Carcinogenic Potency Database (CPDB), 2022)
